One data set has as its system Xanthomonas spp. Put plainly: Field trial in vivo against bacterial leaf streak on spring wheat, foliar spray. On the set-up: species or system Xanthomonas translucens. As to the method:
EXAMPLE 2: TEST IN VIVO AGAINST XANTHOMONAS TRANSLUCENS (WHEAT)
Field trials were conducted to test the efficacy of N-(5-chloro-2-isopropylbenzyl)-N-cyclopropyl-3-(difluoromethyl)-5-fluoro-1-methyl-1H-pyrazole-4-carboxamide (compound A5) in combination with the commercial standard Prosaro (a 1:1 combination of Prothioconazole and Tebuconazole) against bacterial leaf streak caused by Xanthomonas spp. when sprayed on leaves. A control without compound A5 was tested in same conditions.
The field trials were randomized, had 4 replicates and plot size was 15.24 m^2. Fertilization, herbicide- and insecticide applications were carried out according to the local agricultural practice.
N-(5-chloro-2-isopropylbenzyl)-N-cyclopropyl-3-(difluoromethyl)-5-fluoro-1-methyl-1H-pyrazole-4-carboxamide was applied as SC 280 formulation in 3 rates in combination with the commercial standard Prosaro. Test was conducted in a Spring wheat which was treated in growth stage EC 61 with one foliar application.
22 days after application the efficacy of the tested products against the bacterial leaf streak caused by Xanthomonas spp. was visually assessed. The effect was evaluated as preservation of remaining green leaves (GRNLVS) in a scale from 1-6 (meaning 1 best and 6 worst green leaf preservation)

In another data set the test system is Pseudomonas syringae. Put plainly: Field trials in vivo against Pseudomonas syringae on coffee tree, foliar spray. As to the method:
EXAMPLE 1: TEST IN VIVO AGAINST PSEUDOMONAS SYRINGAE (COFFEE)
Two field trials were conducted to find out the efficacy of N-(5-chloro-2-isopropylbenzyl)-N-cyclopropyl-3-(difluoromethyl)-5-fluoro-1-methyl-1H-pyrazole-4-carboxamide (compound A5) against bacteria (Pseudomonas syringae) when sprayed on leaves of coffee tree.
The field trials were randomized, had 3 replicates and plot size was 20 m. The product was applied as an EC 100—formulation in a spray sequence consisting of three foliar applications, beginning in the growth stage EC59. The sprays were done with an interval of approximately 4 weeks (between treatments). About 3 and 11 weeks after the third application the efficacy of the compound against the bacterial pathogen Pseudomonas syringae was visually assessed as incidence of infested leaf rosettes or branches per plot (in %). Then the incidence values were converted into control (% Abbott).

Data set [1] is described as follows: log P by HPLC on reversed-phase column (EEC Directive 79/831 Annex V.A8). The conditions noted are these: HPLC C18, 40° C., 0.1% aqueous formic acid and acetonitrile. The class given is physicochemical. The procedure:
Table 1 provides the log P and NMR data (^1H) of compounds A1 to A20.
In table 1, the log P values were determined in accordance with EEC Directive 79/831 Annex V.A8 by HPLC (High Performance Liquid Chromatography) on a reversed-phase column (C 18), using the method described below:
Temperature: 40° C.; Mobile phases: 0.1% aqueous formic acid and acetonitrile; linear gradient from 10% acetonitrile to 90% acetonitrile.
Calibration was carried out using unbranched alkan-2-ones (comprising 3 to 16 carbon atoms) with known log P values (determination of the log P values by the retention times using linear interpolation between two successive alkanones). lambda-max-values were determined using UV-spectra from 200 nm to 400 nm and the peak values of the chromatographic signals.

This is an account of results in patent US20200045965A1, “METHOD FOR THE CONTROL OF PLANT BACTERIAL DISEASES USING CARBOXAMIDE DERIVATIVES” (BAYER CROPSCIENCE AKTIENGESELLSCHAFT, priority 2016, published 2020).

For orientation: logP means the decadic logarithm of the partition coefficient of the neutral form, usually between octanol and water.

As to `CC(C)c1ccc(Cl)cc1CN(C(=O)c1c(C(F)F)nn(C)c1F)C1CC1` [Compound A5, N-(5-chloro-2-isopropylbenzyl)-N-cyclopropyl-3-(difluoromethyl)-5-fluoro-1-methyl-1H-pyrazole-4-carboxamide], in the data set with Xanthomonas spp., the “suppressing bacterial leaf streak caused by Xanthomonas spp. (conclusion in words)” value is reported as “proves the efficiency”. Moreover, the “effect on bacterial disease caused by Pseudomonas syringae in coffee (conclusion in words)” value in the data set on Pseudomonas syringae (based on the two field trials) is given as “suppresses the bacterial disease”. For the same molecule, the “ABBOTT (%) leaf rosette 21 DA3” value in the data set with Pseudomonas syringae (coffee, first trial (Table 1), 75 g a.i./ha, 21 days after third application) was 39.2%. Besides, the “ABBOTT (%) branch 74 DA3” value with Pseudomonas syringae (coffee, first trial (Table 1), 75 g a.i./ha, 74 days after third application) is given as 45%. In addition, in the data set with Pseudomonas syringae (coffee, first trial (Table 1), 75 g a.i./ha, EC 100, three foliar applications, 21 days after third application, untreated 12.2), the “LEAF ROSETTE INCIDENCE (%) 21 DA3” value was found to be 7.4%. The “ABBOTT (%) leaf rosette 20 DA3” value in the data set with Pseudomonas syringae (coffee, second trial (Table 2), 75 g a.i./ha, 20 days after third application) turned out to be 65.2%. In the data set on Pseudomonas syringae (coffee, second trial (Table 2), 75 g a.i./ha, 20 days after third application, untreated 3.5), the “LEAF ROSETTE INCIDENCE (%) 20 DA3” value was 1.2%.

“N-cyclopropyl-3-(difluoromethyl)-5-fluoro-N-(2-isopropylbenzyl)-1-methyl-1H-pyrazole-4-carbothio-amide [Compound A20]” registered a logP in data set [1] of 4.36.
